Measured values taken from patent US5280548A, “Emission based fiber optic sensors for pH and carbon dioxide analysis” (BOC Health Care, Inc., priority 1993, dated 1994).
“Also recorded” adds a separate entry of the source. Read-outs that look alike come from different tables or passages of the source.

Legend:
[1] = 25° C.; cited from earlier work
[2] = pKa determination from pH-dependent emission; assay type: physicochemical
Protocol: (§1) The effect of temperature on the parameters describing the pH dye was determined. […] The emission spectra were measured as a function of pH at 20° C., 25° C., 30° C., 37° C., and 45° C. […] The relative emission intensity, B, was defined as the ratio of the emission from the base tautomer at 650 nm to the emission from the isosbestic point. The relative emission, A, was defined as the ratio of the isosbestic point emission to the emission from the acid tautomer at 650 nm. The quantities A and B define the upper and lower asymptotes on the response vs. pH sigmoidal curve. The pKa, A, and B were determined for the series of emission spectra at each temperature by fitting the emission intensity at 650 nm to the theoretical response vs. pH curve using non-linear regression.

[3] = Emission lifetime measurement; assay type: physicochemical; settings: for lifetime (τ): 25° C.
From the text: 1969, 31, 1-13], as a standard.

Absorption spectra = assay type: physicochemical; settings: 25° C.
Protocol: Absorption spectra were recorded on a Perkin-Elmer Lambda 5 spectrophotometer.

[4] = Effect of temperature on emission parameters A and B of the pH dye; assay type: physicochemical; settings: for A (relative emission, lower asymptote of response vs. pH) / B (relative emission intensity, base tautomer / isosbestic point): 650 nm
Protocol: as §1

Solubility observations = assay type: physicochemical
Protocol: The polymers prepared above were soluble in acetone, dioxane, tetrahydrofuran, ethanol, and dimethylacetamide. A concentrated solution of the polymer in one of these solvents was prepared and applied to the distal tip of a methacrylate optical fiber, the tip of which had been prepared by cleaving normal to its longitudinal axis with a fresh scalpel blade. The sensors were allowed to dry overnight before use.

[5] = for emission yield (Φ): 25° C.
Protocol: Emission spectra were recorded on either a ISS Greg-200 spectrofluorometer or a single-fiber spectrofluorometer discussed below. Absorption spectra were recorded on a Perkin-Elmer Lambda 5 spectrophotometer. Lifetime measurements were recorded with the ISS Greg-200 spectrofluorometer using excitation by a Coherent 700 Dye Laser with Rhodamine 6G synchronously pumped with a frequency doubled Coherent Antares mode-locked Nd:YAG laser. The mode-locker was driven by a Marconi Instruments 2022a frequency synthesizer locked in phase to another Marconi Instruments 2022a frequency synthesizer which modulated the photomultiplier tubes on the Greg-200 instrument.
Emission yields were corrected for instrument response and measured using tetraphenylporphyrin in benzene, .PHI.=0.11 [Seybold, Paul G.; Gouterman, Martin J. Mol. Spectrosc. 1969, 31, 1-13], as a standard. Lifetime measurements were calibrated with scattered light, .tau.=0. […] The output from the laser was measured before and after the experiment to ensure constant excitation intensity.

[6] = aqueous solution, 540 nm excitation

Compound: O=C=O [carbon dioxide]
- pKa1 [1]: 6.35
- pKa2 [1]: 10.33
- solubility in water [1]: 0.759 ml carbon dioxide @ STP/ml water

Compound: seminaphthorhodaflor-1-carboxylate [SNARF-1C]
- pKa ([2]; 20° C. (Table 2)): 7.79 ± .03
- pKa ([2]; 25° C. (Table 1)): 7.58 ± 0.04
- pKa ([2]; 25° C. (Table 2)): 7.58 ± .01
- pKa ([2]; 30° C. (Table 2)): 7.57 ± .03
- pKa ([2]; 37° C. (Table 1)): 7.44 ± 0.05
- pKa ([2]; 37° C. (Table 2)): 7.44 ± .04
- pKa ([2]; 45° C. (Table 2)): 7.43 ± .06
- emission lifetime, in words [3]: The emission lifetimes are insensitive to concentration; also recorded: The lifetime of the acid tautomer of SNARF-1C is shorter than that for the base tautomer
- lifetime (τ) ([3]; acid form, Conc. 10e-6 M): .80 ns
- lifetime (τ) ([3]; acid form, Conc. 10e-5 M): .80 ns
- lifetime (τ) ([3]; acid form, Conc. 10e-4 M): .78 ns
- lifetime (τ) ([3]; base form, Conc. 10e-6 M): 1.38 ns
- lifetime (τ) ([3]; base form, Conc. 10e-5 M): 1.41 ns
- lifetime (τ) ([3]; base form, Conc. 10e-4 M): 1.26 ns
- lifetime, acid tautomer ([3]; acid tautomer): 800 psec
- lifetime of acid tautomer, difference from previous measurement ([3]; vs. Whitaker et al. 1991): 200 psec
- lambda max (Absorption spectra; acid form, Conc. 10e-6 M): 551 nm
- ε (Absorption spectra; acid form, Conc. 10e-6 M): 19920 M⁻¹ cm⁻¹
- lambda max (Absorption spectra; acid form, Conc. 10e-5 M): 553 nm
- ε (Absorption spectra; acid form, Conc. 10e-5 M): 19380 M⁻¹ cm⁻¹
- lambda max (Absorption spectra; acid form, Conc. 10e-4 M): 549 nm
- ε (Absorption spectra; acid form, Conc. 10e-4 M): 12650 M⁻¹ cm⁻¹
- lambda max (Absorption spectra; base form, Conc. 10e-6 M): 577 nm
- ε (Absorption spectra; base form, Conc. 10e-6 M): 38220 M⁻¹ cm⁻¹
- lambda max (Absorption spectra; base form, Conc. 10e-5 M): 576 nm
- ε (Absorption spectra; base form, Conc. 10e-5 M): 37510 M⁻¹ cm⁻¹
- lambda max (Absorption spectra; base form, Conc. 10e-4 M): 572 nm
- ε (Absorption spectra; base form, Conc. 10e-4 M): 27770 M⁻¹ cm⁻¹
- A and B vs. temperature, in words ([4]; 20-45° C.): independent of temperature
- A (relative emission, lower asymptote of response vs. pH) ([4]; 20° C.): .721 ± .062
- B (relative emission intensity, base tautomer / isosbestic point) ([4]; 20° C.): 5.07 ± .11
- A (relative emission, lower asymptote of response vs. pH) ([4]; 25° C.): .628 ± .061
- B (relative emission intensity, base tautomer / isosbestic point) ([4]; 25° C.): 4.22 ± .10
- A (relative emission, lower asymptote of response vs. pH) ([4]; 30° C.): .678 ± .072
- B (relative emission intensity, base tautomer / isosbestic point) ([4]; 30° C.): 4.95 ± .12
- A (relative emission, lower asymptote of response vs. pH) ([4]; 37° C.): .702 ± .069
- B (relative emission intensity, base tautomer / isosbestic point) ([4]; 37° C.): 4.10 ± .11
- A (relative emission, lower asymptote of response vs. pH) ([4]; 45° C.): .674 ± .127
- B (relative emission intensity, base tautomer / isosbestic point) ([4]; 45° C.): 5.48 ± .19
- solubility, in words (Solubility observations): The potassium salt of the acid was much easier to dissolve
- emission yield (Φ) ([5]; acid form, Conc. 10e-6 M): .12
- emission yield (Φ) ([5]; acid form, Conc. 10e-5 M): .12
- emission yield (Φ) ([5]; acid form, Conc. 10e-4 M): .018
- emission yield (Φ) ([5]; base form, Conc. 10e-6 M): .2
- emission yield (Φ) ([5]; base form, Conc. 10e-5 M): .22
- emission yield (Φ) ([5]; base form, Conc. 10e-4 M): .082
- emission maximum, acid peak [5, 6]: 590 nm
- emission maximum, base peak [5, 6]: 640 nm
- isosbestic point ([5]; emission spectra as a function of pH): 605 nm
- emission spectra, in words ([5]; shift of spectra): do not differ from the previously published spectra; also recorded: did not shift with temperature
